Legend:
Type in all cases: physicochemical
[1] = Physical stability on storage over silica gel at room temperature, XRPD; settings: recrystallization shown by XRPD
Procedure: The molecular interactions of the drug substance-WPI/WPH mixtures were investigated by XRPD using an X'Pert PANanalytical PRO X-ray diffractometer (PANanalytical, Almelo, The Netherlands) with Cukα radition: 1.54187 Å, current: 40 mA and acceleration voltage: 45 kV. Each of the co-amorphous forms obtained either by spray drying or ball milling were scanned (scan rate of 0.067° 2θ/s and step size of 0.026°) with reflectance mode between 2° and 35° 2θ. The collected data was analysed using X'Pert PANanalytical Collector software (PANanalytical, Almelo, The Netherlands).
All samples were stored in a desiccator over silica gel (0% relative humidity) at room temperature and a physical stability study was performed for all SD samples. Each sample was analyzed by XRPD at day 0 and subsequently once every month thereafter.

[2] = Thermogravimetric analysis for measurement of residual moisture; settings: Table 1a; amorphous drugs and spray dried forms with WPI, WPH, WPI components, digested WPI, PVP
Procedure: Thermogravimetric analysis for measurement of residual moisture:
Thermogravimetric analysis was performed on a TGA Discovery instrument (TA Instruments, New Castle, USA). Samples of 10 mg were placed in a platinum pan and sealed with a lid and heated from 25 to 300° C. at 10° C./min. Resulting weight-temperature diagrams were analyzed using Trios software (TA Instruments, New Castle, USA) to calculate the weight loss between 25 and 150° C.

[3] = Intrinsic dissolution rate from powder compacts; settings: for y (mg cm^−2 min^−1), line equation of intrinsic dissolution testing; slope = intrinsic dissolution rate: Table 2a, 0.1 M phosphate buffer pH 7.2, 37° C., 50 rpm; for intrinsic dissolution rate (IDR): phosphate buffer pH 7.2, 37° C.
Procedure: The intrinsic dissolution rate (IDR) was determined from powder compacts obtained with a hydraulic press (PerkinElmer, Hydraulische Presse Model IXB-102-9, Ueberlingen, Germany). Ball-milled powders of pure drug and spray dried powders of drug-protein mixtures were compressed into tablets. Tablets of 150 mg were directly compressed into stainless steel cylinders that served as intrinsic dissolution sample holders at a pressure of 124.9 MPa for 45 secs. […] These cylinders were then placed in 900 ml of 0.1 M phosphate buffer (pH 7.2, 37° C.) dissolution medium and stirred using a magnetic bar at a rotation speed of 50 rpm. At predetermined time points (1, 5, 10, 15, 20, 25 and 30 min, some IDRs were only determined up to 20 min), 5 ml aliquots were withdrawn and immediately replaced with dissolution buffer. The obtained samples were then analyzed using UV spectrophotometer (see below). All dissolution experiments were conducted in triplicate.

[4] = Powder dissolution (USP II apparatus)
Procedure: Powder dissolution was performed in USP type II apparatus. […] The dissolution paddles were rotated at 50 rpm […] taking samples out at 1, 3, 5, 7, 10, 15, 20, 25, 30, 35, 40, 50, 60 and 120 mins. Each sample of 5 ml was taken out and replaced by dissolution medium. To separate powders from medium, the samples were filtered through a 0.45 μm syringe filter (Qmax, Frisinette ApS) and the first 2 ml was discarded to minimize losses due to adsorption. The samples were examined using UV Vis to analyze the drug concentration.

SMILES | time found to be stable (in words) [1] | TGA (residual moisture content in %) [2] [%] | y (mg cm^−2 min^−1), line equation of intrinsic dissolution testing; slope = intrinsic dissolution rate [3] | further results
NS(=O)(=O)c1cc(C(=O)O)c(NCc2ccco2)cc1Cl [A FUR, furosemide] | less than a week | 3.6 ± 0.3 |  | 
CC(=O)Nc1ccc(O)cc1 [A PAR, paracetamol] | less than a week |  | y = 0.201x + 4.5947 mg cm^−2 min^−1 | intrinsic dissolution rate (IDR) ([3]; listed as ball milled amorphous PAR): 0.201 mg cm^−2 min^−1; fold increase in IDR compared to crystalline PAR ([3]; vs C PAR): 1.2 fold
CC(=O)Nc1ccc(O)cc1 [C PAR, paracetamol] |  |  | y = 0.1632x + 2.3462 mg cm^−2 min^−1 | intrinsic dissolution rate (IDR) ([3]; listed as crystalline PAR): 0.1632 mg cm^−2 min^−1

More lines, main results first:

time found to be stable (in words) [1] | TGA (residual moisture content in %) [2] [%] | y (mg cm^−2 min^−1), line equation of intrinsic dissolution testing; slope = intrinsic dissolution rate [3] | SMILES | further results
less than a week | 3.1 ± 0.3 | y = 0.0214x + 2.973 mg cm^−2 min^−1 | COc1ccccc1OCCNCC(O)COc1cccc2[nH]c3ccccc3c12 (centres unmarked) [A CAR, carvedilol] | intrinsic dissolution rate (IDR) ([3]; listed as ball milled amorphous CAR): 0.0214 mg cm^−2 min^−1; fold increase in IDR compared to crystalline CAR ([3]; vs C CAR): 1.8 fold
less than a week | 3.2 ± 0.4 | y = 0.1333x + 4.5538 mg cm^−2 min^−1 | COc1ccc2c(c1)c(CC(=O)O)c(C)n2C(=O)c1ccc(Cl)cc1 [A IND, indomethacin] | powder dissolution (comparison in words) ([4]; USP type II, 200 mg in 50 ml phosphate buffer pH 7.2, 50 rpm): more dissolution than the PM IND-WPI; solubility of IND in its amorphous state ([4]; phosphate buffer pH 7.2, vs crystalline IND): more than double the value crystalline IND; intrinsic dissolution rate (IDR) ([3]; listed as amorphous ball milled IND): 0.1333 mg cm^−2 min^−1
 |  | y = 0.0117x + 2.8082 mg cm^−2 min^−1 | COc1ccccc1OCCNCC(O)COc1cccc2[nH]c3ccccc3c12 (centres unmarked) [C CAR, carvedilol] | intrinsic dissolution rate (IDR) ([3]; listed as crystalline CAR): 0.0117 mg cm^−2 min^−1
 |  | y = 0.0787x + 4.006 mg cm^−2 min^−1 | COc1ccc2c(c1)c(CC(=O)O)c(C)n2C(=O)c1ccc(Cl)cc1 [C IND, indomethacin] | intrinsic dissolution rate (IDR) ([3]; listed as crystalline IND): 0.0787 mg cm^−2 min^−1

From patent publication US20190307886A1, “A CO-AMORPHOUS FORM OF A SUBSTANCE AND A PROTEIN” (University of Copenhagen, priority 2016, published 2019)
